Values joined by “and” are separate entries in the source; they are usually repeats but may differ in a detail not shown here. Equal entries are not always repeated. Inconclusive results and toxic doses are left out. How the source made its calls: active means survival T/C of 150% or more; inactive means T/C below 125% in these data.
Tested on: P388 leukemia ip, CD2F1 mice, survival T/C
Test: NCI In Vivo Anticancer Drug Screen. Data for tumor model P388 Leukemia (intraperitoneal) in CD2F1 (CDF1) mice
Conditions: endpoint: median survival time, higher = longer survival
In short: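 Mice carrying the transplanted tumor received test compound or vehicle. Survival was recorded in each group, and the value is the treated-group measurement divided by that of the vehicle-treated control group.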

[1] = dose: 50.0 mg/kg/injection, schedule: Q01DX009 (ip), vehicle: saline
[2] = dose: 100.0 mg/kg/injection, schedule: Q01DX009 (ip), vehicle: saline
[3] = dose: 200.0 mg/kg/injection, schedule: Q01DX009 (ip), vehicle: saline
[4] = dose: 100.0 mg/kg/injection, schedule: Q01DX005 (ip), vehicle: saline with Tween-80
[5] = dose: 200.0 mg/kg/injection, schedule: Q01DX005 (ip), vehicle: saline with Tween-80

Measured: T/C

Cc1cc(O)c2c(c1O)C(=O)c1cccc(O)c1C2=O
inactive: dose: 0.75 mg/kg/injection, schedule: Q01DX009 (ip), vehicle: Klucel (hydroxypropylcellulose) (HPC) 108 % of control | dose: 1.5 mg/kg/injection, schedule: Q01DX009 (ip), vehicle: Klucel (hydroxypropylcellulose) (HPC) 115 % of control | dose: 3.0 mg/kg/injection, schedule: Q01DX005 (ip), vehicle: Klucel (hydroxypropylcellulose) (HPC) 99 % of control | dose: 3.0 mg/kg/injection, schedule: Q01DX009 (ip), vehicle: Klucel (hydroxypropylcellulose) (HPC) 90 % of control | dose: 6.0 mg/kg/injection, schedule: Q01DX005 (ip), vehicle: Klucel (hydroxypropylcellulose) (HPC) 106 % of control | dose: 6.0 mg/kg/injection, schedule: Q01DX009 (ip), vehicle: Klucel (hydroxypropylcellulose) (HPC) 114 % of control | dose: 12.0 mg/kg/injection, schedule: Q01DX005 (ip), vehicle: Klucel (hydroxypropylcellulose) (HPC) 101 % of control | dose: 12.0 mg/kg/injection, schedule: Q01DX009 (ip), vehicle: Klucel (hydroxypropylcellulose) (HPC) 98 % of control | dose: 12.5 mg/kg/injection, schedule: Q01DX005 (ip), vehicle: Klucel (hydroxypropylcellulose) (HPC) 101 % of control | dose: 24.0 mg/kg/injection, schedule: Q01DX005 (ip), vehicle: Klucel (hydroxypropylcellulose) (HPC) 95 % of control | dose: 25.0 mg/kg/injection, schedule: Q01DX005 (ip), vehicle: Klucel (hydroxypropylcellulose) (HPC) 97 % of control | dose: 50.0 mg/kg/injection, schedule: Q01DX005 (ip), vehicle: Klucel (hydroxypropylcellulose) (HPC) 90 % of control | dose: 100.0 mg/kg/injection, schedule: Q01DX001 (ip), vehicle: saline 109 % of control | dose: 200.0 mg/kg/injection, schedule: Q01DX001 (ip), vehicle: saline 108 % of control | dose: 400.0 mg/kg/injection, schedule: Q01DX001 (ip), vehicle: saline 100 % of control

CCOC(=O)N1CC2C=CC1C(C(C)=O)C2 (centres undefined)
inactive: [1] 110 % of control | [2] 109 % of control | [3] 109 % of control

CCCCN(CCO)CC(O)Cn1cnc2c(N)ncnc21 (centres undefined) (tested in a mixture with another compound)
inactive: dose: 60.0 mg/kg/injection, schedule: Q01DX005 (ip), vehicle: saline 94 % of control | dose: 120.0 mg/kg/injection, schedule: Q01DX005 (ip), vehicle: saline 97 % of control | dose: 240.0 mg/kg/injection, schedule: Q01DX005 (ip), vehicle: saline 94 % of control

COC1=CC(=O)C=C(CO)C1=O
inactive: dose: 1.56 mg/kg/injection, schedule: Q01DX009 (ip), vehicle: saline 104 % of control | dose: 3.12 mg/kg/injection, schedule: Q01DX009 (ip), vehicle: saline 107 % of control | dose: 6.25 mg/kg/injection, schedule: Q01DX009 (ip), vehicle: saline 111 % of control and 94 % of control

O=C(c1cc(Nc2ccnc3cc(Cl)ccc23)ccc1O)N1CCCCC1
inactive: [4] 120 % of control | [5] 121 % of control

CCOC(=O)CN=Cc1ccccc1
inactive: dose: 60.0 mg/kg/injection, schedule: Q01DX005 (ip), vehicle: saline with Tween-80 107 % of control | dose: 120.0 mg/kg/injection, schedule: Q01DX005 (ip), vehicle: saline with Tween-80 108 % of control | dose: 240.0 mg/kg/injection, schedule: Q01DX005 (ip), vehicle: saline with Tween-80 107 % of control

O=c1[nH]c(N2CCNCC2)nc2ccccc12
inactive: [1] 102 % of control | [2] 101 % of control | [3] 104 % of control

N#Cc1[nH]cnc1O
inactive: dose: 50.0 mg/kg/injection, schedule: Q01DX005 (ip), vehicle: saline with Tween-80 103 % of control | [4] 101 % of control | [5] 112 % of control

O=c1oc2cccc(O)c2s1
inactive: dose: 12.5 mg/kg/injection, schedule: Q01DX001 (ip), vehicle: saline 97 % of control | dose: 25.0 mg/kg/injection, schedule: Q01DX001 (ip), vehicle: saline 99 % of control | dose: 50.0 mg/kg/injection, schedule: Q01DX001 (ip), vehicle: Klucel (hydroxypropylcellulose) (HPC) 106 % of control | dose: 50.0 mg/kg/injection, schedule: Q01DX001 (ip), vehicle: saline 98 % of control

Reference: PubChem BioAssay AID330 (DTP/NCI, 2004)
